Legend:
rgRSV224 virus = assay: Antiviral activity: inhibition of rgRSV224 (GFP-expressing RSV) replication in HeLa cells, GFP expression read-out; type: cell-based, respiratory syncytial virus (RSV); settings: human respiratory syncytial virus, HeLa, read-out: RSV HELA pEC50, rgRSV224 virus (MOI=1) in HeLa cells, GFP read-out (converted)
Method in brief: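 EC50 is the 50% inhibitory concentration for GFP expression, read by laser microscopy three days after rgRSV224 infection (MOI=1) of HeLa cells (3,000/well). Compounds were tested as 9 serial 4-fold dilutions at 0.05% DMSO, and cells were incubated at 37° C under 5% CO2.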

[1] = Cytotoxicity in HeLa cells, ATP content measured with the ATPlite kit; type: cell-based; settings: human, TOX HELA pCC50

Structure (SMILES)	melting point	EC50 (rgRSV224 virus)	CC50 at 3 days [1]
CCc1cc(C(=O)N2CCCCC[C@H]2C)nc2cc(-c3ccc(N4CC=C(C(=O)O)CC4)cc3F)nn12 [Compound W11]	277.45 °C	234 nM	58900 nM
CCc1cc(C(=O)N2CCCCCC2C)nc2cc(-c3ccc(NC(=O)CCC(N)=O)cc3F)nn12 (stereo not drawn) [Compound E25]	155 to 160 °C	61.7 nM	> 25100 nM
C[C@@H]1c2ccccc2CCN1C(=O)c1cc(C2(C)CC2)n2nc(-c3ccc(-n4cc(C(=O)O)cn4)cc3F)cc2n1 [Compound W26]	238.58 °C	23.4 nM	> 100000 nM
CCc1cc(C(=O)N2CCCCCC2C)nc2cc(-c3ccc(CO)cc3)nn12 (stereo not drawn) [Compound A21]	155 to 160 °C	891 nM	> 100000 nM
CCc1cc(C(=O)N2CCCCCC2C)nc2cc(-c3ccc(-c4ccn[nH]4)cc3F)nn12 (stereo not drawn) [Compound F5]	75 to 76 °C	309 nM	> 25100 nM
CCc1cc(C(=O)N2CCCCCN2C)nc2cc(-c3ccc(-c4ccc(C(=O)O)cn4)cc3F)nn12 [Compound F35]	268.78 °C	162 nM	> 100000 nM
C[C@@H]1CCCCCN1C(=O)c1cc(C2CCC2)n2nc(-c3ccc(-n4cc(C(=O)O)cn4)cc3F)cc2n1 [Compound W9]	142.16 °C	46.8 nM	51300 nM
CCc1cc(C(=O)N2CCCCC[C@H]2C)nc2cc(-c3ccc(C#N)cc3F)nn12 [Compound H4]	96 °C	661 nM	> 25100 nM
CCc1cc(C(=O)N2CCCCCCC2C)nc2cc(-c3ccc(NC(=O)NCC4CCCO4)cc3F)nn12 (stereo not drawn) [Compound B3]	195 to 200 °C	79.4 nM	> 25100 nM
CCc1cc(C(=O)N2CCCCCCC2C)nc2cc(-c3ccc(C(=O)O)cc3F)nn12 (stereo not drawn) [Compound K4]	133 to 134 °C	275 nM	> 25100 nM
CCc1cc(C(=O)N2CCCCCC2C)nc2cc(-c3ccc(C(=O)NS(C)(=O)=O)cc3F)nn12 (stereo not drawn) [Compound L10]	194 °C	2690 nM	> 25100 nM
CNc1cc(C(=O)N2CCCCC[C@H]2C)nc2cc(-c3ccc(/C=C/C(=O)O)cc3F)nn12 [Compound M3]	198 to 200 °C	251 nM	> 25100 nM
CCc1cc(C(=O)N2CCCCCC2C)nc2cc(-c3ccc(NC(=O)OCCO)cc3)nn12 (stereo not drawn) [Compound C6]	176 to 178 °C	537 nM	> 25100 nM
CCc1cc(C(=O)N2CCCCCC2C)nc2cc(-c3ccc(NC(=O)c4nccn4C)cc3F)nn12 (stereo not drawn) [Compound E1]	210 to 215 °C	617 nM	> 25100 nM
CCc1cc(C(=O)N2CCn3nccc3C2C)nc2cc(-c3ccc(/C=C/C(=O)O)cc3F)nn12 (stereo not drawn) [Compound M41]	225 to 230 °C	794 nM	> 25100 nM
CCc1cc(C(=O)N2CCCCCC2C)nc2cc(-c3ccc(NC(=O)C4(C)CC4)cc3F)nn12 (stereo not drawn) [Compound E8]	225 to 230 °C	468 nM	> 25100 nM
CCc1cc(C(=O)N2CCn3cccc3C2C)nc2cc(-c3ccc(/C=C/C(=O)O)cc3F)nn12 (single isomer, unassigned) [Compound M44]	127.94 °C	18.2 nM	> 25100 nM
CCCC(C)N(C)C(=O)c1cc(CC)n2nc(-c3ccc(C(N)=O)cc3)cc2n1 (stereo not drawn) [Compound A28]	140 to 145 °C	794 nM	> 25100 nM
CCc1cc(C(=O)N2CCCCCC2C)nc2cc(-c3ccc(-c4cn(C)c(C)n4)cc3F)nn12 (stereo not drawn) [Compound F10]	118 to 119 °C	692 nM	> 25100 nM
CCc1cc(C(=O)N2CCCCCC2C)nc2cc(-c3ccc(NC(=O)NCC4CCCO4)cc3C)nn12 (stereo not drawn) [Compound B4]	123 °C	257 nM	55000 nM

Structure (SMILES)	melting point	EC50 (rgRSV224 virus)	CC50 at 3 days [1]
CCc1cc(C(=O)N2CCCCCC2C)nc2c(F)c(-c3ccc(NS(C)(=O)=O)cc3F)nn12 (stereo not drawn) [Compound D4]	210 to 212 °C	490 nM	> 25100 nM
CCc1cc(C(=O)N2CCCCCC2C)nc2cc(-c3ccc(CCC(=O)O)cc3F)nn12 (stereo not drawn) [Compound Q1]	125 to 130 °C	537 nM	> 25100 nM
C[C@@H]1CCCCCN1C(=O)c1cc(C2(C)CC2)n2nc(-c3ccc(-n4cc(C(=O)O)cn4)cc3F)cc2n1 [Compound W10]	239.85 °C	30.9 nM	52500 nM
CCc1cc(C(=O)N2CCCCCC2C)nc2c(Cl)c(-c3ccc(NC(=O)C4CC4)cc3F)nn12 (stereo not drawn) [Compound E13]	245 to 250 °C	1480 nM	> 25100 nM
CCc1cc(C(=O)N2CCCCCC2C)nc2cc(-c3ccc(C(N)=O)nc3)nn12 (stereo not drawn) [Compound I28]	174 to 175 °C	1780 nM	> 25100 nM
CCc1cc(C(=O)N2CCCCCC2C)nc2cc(-c3ccc(-c4cncc(F)c4)cc3F)nn12 (stereo not drawn) [Compound F7]	95 to 96 °C	2090 nM	> 25100 nM
C[C@@H]1CCCCCN1C(=O)c1cc(C2(C)CC2)n2nc(-c3ccc(C4C[C@H]4C(=O)O)cc3F)cc2n1 (mixture of isomers) [Compound O10]	333.75 °C	28.8 nM	45700 nM
CCc1cc(C(=O)N2CCCCCCC2C)nc2cc(-c3ccc(C(N)=O)cc3)nn12 (stereo not drawn) [Compound A29]	170 to 175 °C	155 nM	> 25100 nM
C[C@@H]1CCCCCN1C(=O)c1cc(N(C)C)n2nc(-c3ncc(/C=C/C(=O)O)cc3Cl)cc2n1 [Compound M12]	197 to 199 °C	4070 nM	> 25100 nM
CC1CCCCCN1C(=O)c1cc(N2CCCCC2)n2nc(-c3ccc(NC(=O)C4CC4)cc3)cc2n1 (stereo not drawn) [Compound E18]	299 to 300 °C	1260 nM	> 25100 nM
CCc1cc(C(=O)N2CCCCCC2C)nc2cc(-c3ccc(S(=O)(=O)N(C)C)cc3F)nn12 (stereo not drawn) [Compound P1]	120 °C	2820 nM	> 25100 nM
CCc1cc(C(=O)N2CCc3ccccc3C2C)nc2cc(-c3ccc(C(=O)NC(C)C(=O)O)cc3F)nn12 (stereo not drawn) [Compound L11]	165 to 170 °C	631 nM	> 25100 nM
CCc1cc(C(=O)N2CCCCCC2C)nc2cc(-c3ccc(NC(=O)CC#N)cc3F)nn12 (stereo not drawn) [Compound E6]	245 to 250 °C	166 nM	> 25100 nM
CCc1cc(C(=O)N2CCCCCC2C)nc2cc(-c3ccc(NC(=O)CCC(=O)N(C)C)cc3F)nn12 (stereo not drawn) [Compound E28]	180 to 185 °C	117 nM	> 25100 nM
CCc1cc(C(=O)N2CCCCC[C@H]2C)nc2cc(-c3ccc(N4CC[C@@](C)(C(=O)O)C4)cc3F)nn12 [Compound W50]	110.2 °C	44.7 nM	74100 nM
CCc1cc(C(=O)N2CCCCCC2C)nc2cc(-c3ccc(NC(=O)C4CC4)cc3F)nn12 (stereo not drawn) [Compound E11]	145 °C	631 nM	> 25100 nM
C[C@@H]1CCCCCN1C(=O)c1cc(C2(C)CC2)n2nc(-c3ccc(/C=C/C(=O)O)cc3F)cc2n1 [Compound M20]	228.12 °C	32.4 nM	36300 nM
CCc1cc(C(=O)N2CCCCCC2C)nc2cc(-c3ccc(-c4cccnc4F)cc3F)nn12 (stereo not drawn) [Compound F8]	86 to 87 °C	2340 nM	> 25100 nM
C[C@@H]1CCCCCN1C(=O)c1cc(C2CCC2)n2nc(-c3ccc4c(c3F)OCC(C(=O)O)=C4)cc2n1 [Compound F39]	230.94 °C	38.9 nM	44700 nM

— patent US11084826B2, “RSV antiviral pyrazolo- and triazolo-pyrimidine compounds” (Janssen Sciences Ireland Unlimited Company, priority 2015, dated 2021)
